From ChEMBL document CHEMBL3227939, “Synthesis of daunorubicin analogues with novel 9-acyl substituents” (1979)

How the values were obtained:
P388 [1] = test: Antitumor activity against mouse P388 cells allografted in CDF/RDF mouse assessed as increase in survival time at 12.5 mg/kg, ip administered once daily on day 5, 9 and 13 relative to control; assay type: functional; settings: route intraperitoneal
Calf thymus DNA = test: Binding affinity to calf thymus DNA assessed as change in melting temperature; assay type: nucleic-acid assay; settings: Bos taurus
L1210 [2] = test: Inhibition of DNA synthesis in mouse L1210 cells; assay type: functional; settings: read-out: ED50 (the source's name)
L1210 [3] = test: Inhibition of RNA synthesis in mouse L1210 cells; assay type: functional; settings: read-out: ED50 (the source's name)
P388 [4] = test: Antitumor activity against mouse P388 cells allografted in CDF/RDF mouse assessed as increase in survival time at 50 mg/kg, ip administered once daily on day 5, 9 and 13 relative to control; assay type: functional; settings: route intraperitoneal
P388 [5] = test: Antitumor activity against mouse P388 cells allografted in CDF/RDF mouse assessed as increase in survival time at 4 mg/kg, ip administered once daily on days 1 to 9 relative to control; assay type: functional; settings: route intraperitoneal
P388 [6] = test: Antitumor activity against mouse P388 cells allografted in CDF/RDF mouse assessed as increase in survival time at 37.5 mg/kg, ip administered once daily on day 5, 9 and 13 relative to control; assay type: functional; settings: route intraperitoneal
P388 [7] = test: Antitumor activity against mouse P388 cells allografted in CDF/RDF mouse assessed as increase in survival time at 3.13 mg/kg, ip administered once daily on days 1 to 9 relative to control; assay type: functional; settings: route intraperitoneal

Structure (SMILES)	T/C (P388 [1]) [%]	ΔTm (Calf thymus DNA) [°C]	EC50 (L1210 [2]) [nM]	EC50 (L1210 [3]) [nM]	T/C (P388 [4]) [%]	T/C (P388 [5]) [%]	T/C (P388 [6]) [%]	T/C (P388 [7]) [%]
CCC(=O)[C@]1(O)Cc2c(O)c3c(c(O)c2[C@@H](O[C@H]2C[C@H](N)[C@H](O)[C@H](C)O2)C1)C(=O)c1c(OC)cccc1C3=O	128	11	670	290				
COc1cccc2c1C(=O)c1c(O)c3c(c(O)c1C2=O)C[C@@](O)(C(=O)CCc1ccccc1)C[C@@H]3O[C@H]1C[C@H](N)[C@H](O)[C@H](C)O1		8.6	1500	1600	129			
COc1cccc2c1C(=O)c1c(O)c3c(c(O)c1C2=O)C[C@@](O)(C(C)=O)C[C@@H]3O[C@H]1C[C@H](N)[C@H](O)[C@H](C)O1 [DAUNORUBICIN]			660	330				
COc1cccc2c1C(=O)c1c(O)c3c(c(O)c1C2=O)C[C@@](O)(C=O)C[C@@H]3O[C@H]1C[C@H](N)[C@H](O)[C@H](C)O1		6.5	4100	2000	154	169		
COc1cccc2c1C(=O)c1c(O)c3c(c(O)c1C2=O)C[C@@](O)(C(=O)C(C)C)C[C@@H]3O[C@H]1C[C@H](N)[C@H](O)[C@H](C)O1		10.3	1000	400			122	117
COc1cccc2c1C(=O)c1c(O)c3c(c(O)c1C2=O)C[C@@](O)(C(=O)CO)C[C@@H]3O[C@H]1C[C@H](N)[C@H](O)[C@H](C)O1 [DOXORUBICIN]			1500	580				
